According to US20250154144A1 (CHILDREN'S HOSPITAL MEDICAL CENTER, priority 2021, published 2025):
Residue numbers refer to the chain shown, from its start. Where two headings read alike, the source gives them in different places.

Tests used:
FLT3 = target: T1, FLT3 (Homo sapiens, UniProt P36888); experiment: Reaction Biology NanoBRET target engagement assay in HEK-293 cells, FLT3
T1 sequence (P36888 27-993): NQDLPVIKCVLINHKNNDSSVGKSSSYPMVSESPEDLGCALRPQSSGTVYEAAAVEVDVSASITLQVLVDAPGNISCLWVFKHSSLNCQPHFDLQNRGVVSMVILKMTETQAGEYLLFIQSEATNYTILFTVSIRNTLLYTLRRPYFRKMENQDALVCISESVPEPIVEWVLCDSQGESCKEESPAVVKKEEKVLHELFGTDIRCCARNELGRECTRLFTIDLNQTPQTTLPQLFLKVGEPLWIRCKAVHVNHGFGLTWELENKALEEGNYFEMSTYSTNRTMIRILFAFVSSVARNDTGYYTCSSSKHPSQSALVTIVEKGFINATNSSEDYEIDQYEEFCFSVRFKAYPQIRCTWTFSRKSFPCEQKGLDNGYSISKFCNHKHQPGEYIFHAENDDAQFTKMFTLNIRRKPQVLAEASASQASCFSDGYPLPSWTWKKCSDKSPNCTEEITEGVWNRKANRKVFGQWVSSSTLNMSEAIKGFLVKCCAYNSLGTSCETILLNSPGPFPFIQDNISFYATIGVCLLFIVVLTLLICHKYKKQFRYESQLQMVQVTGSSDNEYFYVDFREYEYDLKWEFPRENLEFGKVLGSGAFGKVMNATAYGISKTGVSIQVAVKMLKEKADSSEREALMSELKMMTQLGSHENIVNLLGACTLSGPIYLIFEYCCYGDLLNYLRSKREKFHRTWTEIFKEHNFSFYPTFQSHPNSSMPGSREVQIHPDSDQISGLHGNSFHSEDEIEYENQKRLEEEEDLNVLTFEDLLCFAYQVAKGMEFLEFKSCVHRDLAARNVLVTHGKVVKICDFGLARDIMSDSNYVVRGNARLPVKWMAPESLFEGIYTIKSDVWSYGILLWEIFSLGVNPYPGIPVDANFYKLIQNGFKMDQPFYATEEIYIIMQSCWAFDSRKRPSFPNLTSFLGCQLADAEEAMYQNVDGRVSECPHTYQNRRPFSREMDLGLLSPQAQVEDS

FLT3 D835V = target: T2, FLT3 D835V (Homo sapiens, UniProt P36888, D835V); experiment: DiscoverX KINOMEscan competition binding, FLT3 D835V
T2 construct: purchased DiscoverX (KINOMEscan)
T2 sequence (P36888 27-993 D835V): T1 sequence (P36888 27-993) with D809V

IRAK1 = IRAK1 (Homo sapiens, UniProt P51617); experiment: RBC HotSpot Kinase Assay, IRAK1; conditions: IRAK1 IC50
IRAK4 = target: T3, IRAK4 (Homo sapiens, UniProt Q9NWZ3); experiment: DiscoverX KINOMEscan competition binding, IRAK4; parameters: purchased RBC (Reaction Biology) HotSpot assay
T3 sequence (Q9NWZ3 1-460): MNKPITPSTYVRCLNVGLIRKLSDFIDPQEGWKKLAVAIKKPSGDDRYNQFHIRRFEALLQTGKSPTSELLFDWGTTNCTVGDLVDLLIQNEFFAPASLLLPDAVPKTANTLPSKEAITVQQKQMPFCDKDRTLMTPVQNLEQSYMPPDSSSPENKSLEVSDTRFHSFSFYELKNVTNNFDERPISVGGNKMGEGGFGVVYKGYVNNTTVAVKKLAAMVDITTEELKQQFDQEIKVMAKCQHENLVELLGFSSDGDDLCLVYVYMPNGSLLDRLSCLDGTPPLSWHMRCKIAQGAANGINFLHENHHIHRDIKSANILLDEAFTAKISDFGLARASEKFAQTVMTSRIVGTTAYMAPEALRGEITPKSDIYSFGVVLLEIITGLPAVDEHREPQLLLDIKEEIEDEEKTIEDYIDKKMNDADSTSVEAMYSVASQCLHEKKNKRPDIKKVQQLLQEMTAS

[1] = NanoBRET FLT3 IC50, HEK-293 cells

Sequence of IRAK1 (P51617 whole entry): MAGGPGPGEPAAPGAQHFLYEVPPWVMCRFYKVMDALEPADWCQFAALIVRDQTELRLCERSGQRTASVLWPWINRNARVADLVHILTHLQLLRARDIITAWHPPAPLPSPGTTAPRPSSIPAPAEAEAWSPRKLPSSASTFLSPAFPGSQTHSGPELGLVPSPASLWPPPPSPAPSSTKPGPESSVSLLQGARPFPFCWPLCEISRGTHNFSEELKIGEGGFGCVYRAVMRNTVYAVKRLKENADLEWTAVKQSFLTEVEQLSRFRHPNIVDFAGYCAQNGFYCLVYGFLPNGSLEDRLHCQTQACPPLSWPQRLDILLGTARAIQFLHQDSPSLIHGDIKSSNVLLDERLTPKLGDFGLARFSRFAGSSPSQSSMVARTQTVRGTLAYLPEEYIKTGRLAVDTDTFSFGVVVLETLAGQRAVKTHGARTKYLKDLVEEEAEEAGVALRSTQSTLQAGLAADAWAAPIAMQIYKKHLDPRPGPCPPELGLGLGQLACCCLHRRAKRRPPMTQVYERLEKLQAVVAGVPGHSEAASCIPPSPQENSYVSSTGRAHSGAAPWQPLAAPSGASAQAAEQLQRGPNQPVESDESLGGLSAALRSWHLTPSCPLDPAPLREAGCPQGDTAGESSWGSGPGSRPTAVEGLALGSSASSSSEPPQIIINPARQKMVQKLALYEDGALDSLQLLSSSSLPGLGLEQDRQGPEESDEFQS

Compound	IC50 (FLT3; [1]) [nM]	Kd (FLT3 D835V) [nM]	IC50 (IRAK1) [nM]	Kd (IRAK4) [nM]	IC50 (FLT3) [nM]
COc1cc2ncc(-c3cncc(N[C@H]4CNC[C@@H]4F)n3)n2nc1C1CC1 [Compound 22, 6-(6-cyclopropyl-7-methoxyimidazo[1,2-b]pyridazin-3-yl)-N-((3S,4S)-4-fluoropyrrolidin-3-yl)pyrazin-2-amine]		0.15	61	0.84	322
COc1cc2ncc(-c3cncc(N[C@H]4CNCC[C@@H]4F)n3)n2nc1C1CC1 [Compound 24, 6-(6-cyclopropyl-7-methoxyimidazo[1,2-b]pyridazin-3-yl)-N-((3S,4S)-4-fluoropiperidin-3-yl)pyrazin-2-amine]	19	0.063	40	0.22	
COc1cc2ncc(-c3ccnc(N[C@@H]4CCCNC4)n3)n2cc1C(C)(C)O [Compound 44, (R)-2-(7-methoxy-3-(2-(piperidin-3-ylamino)pyrimidin-4-yl)imidazo[1,2-a]pyridin-6-yl)propan-2-ol]	18	0.042	1	0.072	
COc1cc2ncc(-c3ccnc(N[C@@H]4CCCNC4)n3)n2nc1C1CC1 [Compound 50, (R)-4-(6-cyclopropyl-7-methoxyimidazo[1,2-b]pyridazin-3-yl)-N-(piperidin-3-yl)pyrimidin-2-amine]			63		
COc1cc2ncc(-c3ccnc(N[C@H]4CNCC[C@@H]4F)n3)n2nc1C1CC1 [Compound 51, 4-(6-cyclopropyl-7-methoxyimidazo[1,2-b]pyridazin-3-yl)-N-((3S,4S)-4-fluoropiperidin-3-yl)pyrimidin-2-amine]	9	0.11	11	0.57	

More lines, now with the values ahead:

IC50 (FLT3; [1]) [nM]	Kd (FLT3 D835V) [nM]	IC50 (IRAK1) [nM]	Kd (IRAK4) [nM]	IC50 (FLT3) [nM]	Compound
992	0.47	3	0.38		CC(O)(c1cn2c(-c3ccnc(N[C@H]4CNCC[C@@H]4F)n3)cnc2cn1)C(F)(F)F (single isomer, unassigned) [Compound 72]
177	0.16	18	0.81		F[C@H]1CCNC[C@@H]1Nc1cncc(-c2cnc3cc(OC4CC4)ccn23)n1 [Compound 12, 6-(7-cyclopropoxyimidazo[1,2-a]pyridin-3-yl)-N-((3S,4S)-4-fluoropiperidin-3-yl)pyrazin-2-amine]
	0.06	11	0.56		COc1cc2ncc(-c3ccnc(N[C@H]4CNC[C@@H]4F)n3)n2nc1C1CC1 [Compound 49, 4-(6-cyclopropyl-7-methoxyimidazo[1,2-b]pyridazin-3-yl)-N-((3S,4S)-4-fluoropyrrolidin-3-yl)pyrimidin-2-amine]
